{
  "source": "patent US20210379100A1",
  "about": "“USE OF FUNCTIONALIZED CALCIUM CARBONATE AS ACTIVE INGREDIENT” (OMYA INTERNATIONAL AG, priority 2018, published 2021)",
  "test": "Particle size distribution (Malvern Mastersizer 3000 laser diffraction / Sedigraph sedimentation)",
  "assay_type": "physicochemical",
  "excerpt": "The “particle size” of all particulate materials disclosed herein, with the exception of ground calcium carbonate and precipitated calcium carbonate, is described as volume-based particle size distribution dx(vol). Therein, the value dx(vol) represents the diameter relative to which x % by volume of the particles have diameters less than dx(vol). This means that, for example, the d20(vol) value is the particle size at which 20 vol % of all particles are smaller than that particle size. The d50(vol) value is thus the volume median particle size, i.e. 50 vol % of all particles are smaller than that particle size and the d98(vol) value, referred to as volume-based top cut, is the particle size at which 98 vol % of all particles are smaller than that particle size. […]\nAll particle sizes described herein, with the exception of the particle sizes of the ground calcium carbonate that was used for the production of the functionalized calcium carbonate and that of precipitated calcium carbonate, refer to the volume-based particle size distribution dx(vol). The volume-based median particle size d50(vol) and top cut d98(vol) are evaluated using a Malvern Mastersizer 3000 Laser Diffraction System (Malvern Instruments Plc., Great Britain). The raw data obtained by the measurement is analyzed using the Fraunhofer theory. […]",
  "data": [
    {"smiles": "O.O.O.O.O=C([O-])CC(O)(CC(=O)[O-])C(=O)[O-].O=C([O-])CC(O)(CC(=O)[O-])C(=O)[O-].[Ca+2].[Ca+2].[Ca+2]", "note": "[Calcium citrate tetrahydrate]", "values": [
      {"measurement": "d50", "setting": "median particle size", "value": 6.83, "unit": "μm"},
      {"measurement": "d98", "setting": "top cut particle size", "value": 80, "unit": "μm"}
    ]}
  ]
}
